Data as given in patent publication US11559518B2, “Endoplasmic reticulum stress regulator comprising benzothiazoimidazolyl compound” (ER Stress Research Institute, Inc., priority 2017, dated 2023).

Assays:
[1] = tested on: endoplasmic reticulum stress response (EUA activity) in 293A transformed cells; assay: Endoplasmic reticulum stress reporter (10×ERSE2-10×UPRE-5×AARE-EGFP) fluorescence under Tunicamycin; assay type: cell-based; settings: for inhibition at 5 µM: 293A, read-out: Endoplasmic reticulum stress inhibition rate (Z)%; for Suppression of EUA activity (endoplasmic reticulum stress response activation) caused by Tunicamycin: FIG. 5
[2] = tested on: 293A transformed cell line; assay: Intracellular ATP level (viability) of Tm-treated 293A transformed cell line; assay type: cell-based; settings: Tm treatment; 43 hours; FIG. 9
Protocol: (§1) Intracellular ATP level or activity of lactate dehydrogenase (LDH), which is released from cells that have been damaged in the cell membrane, were measured in order to confirm the effect of Compound No. 1 against cell growth or cytotoxicity. […] Each were measured using an ATP assay kit (Promega, Celltiter-glo) and LDH activity measurement kit (Dojindo, Cytotoxicity LDH Assay Kit-WST) using a multiplate reader, Cytation 3 (Bio-Tek) according to the protocols of the kits (number of tests n=4).

[3] = tested on: 293A transformed cell line; assay: Lactate dehydrogenase (LDH) release (cytotoxicity) of Tm-treated 293A transformed cell line; assay type: cell-based; settings: 43 hours, FIG. 10
Protocol: as §1

[4] = tested on: 293A transformed cell line; settings: FIG. 8; for Cell proliferation on treatment with the stress inducer / cytotoxic compound alone: no test compound added
Protocol: It is noted that in addition to Tm, camptothecin (CPT) was also used as a compound to confer cytotoxicity, and this was used as a positive control for cell death. Cell proliferation rate was determined by obtaining bright field images using a high content confocal imaging system (PerkinElmer, Operetta CLS) at intervals of 4 hours after starting the experiment, and calculating cell density from the bright field image using an image analysis software Harmony (PerkinElmer).

[5] = Compound concentration: 5 μM, Tm-induced, EGFP fluorescence

Row | Compound | inhibition at 5 µM [1, 5] [%] | further results
1 | O=C([O-])CCCc1ccccc1.[Na+] [4PBA, Sodium 4-phenylbutyrate, reference compound] | 0 | Suppression of EUA activity (endoplasmic reticulum stress response activation) caused by Tunicamycin ([1]; concentration not given): could not suppress
2 | CCCC(=O)NCCc1csc(-c2ccc(Cl)cc2)n1 [Azoramide] |  | Suppression of EUA activity (endoplasmic reticulum stress response activation) caused by Tunicamycin ([1]; 40 μM): had an inhibitory effect; Endoplasmic reticulum stress inhibition rate (Z)% [1, 5]: 0%; Intracellular ATP level recovered, % of that of UT cells [2]: approximately 75%; LDH activity increased by Tm treatment, decreased to % of that of UT cells [3]: approximately 50%; Cell proliferation recovered, % of that of UT cells ([4]; 40 μM, 0.2 μg/mL Tm): approximately 58%
3 | C[C@H](CCC(=O)NCCS(=O)(=O)O)[C@H]1CC[C@H]2[C@@H]3[C@@H](O)C[C@@H]4C[C@H](O)CC[C@]4(C)[C@H]3CC[C@]12C [TUDCA, Tauroursodeoxycholic Acid, reference compound] | 0 | Suppression of EUA activity (endoplasmic reticulum stress response activation) caused by Tunicamycin ([1]; concentration not given): could not suppress
4 | CC[C@@]1(O)C(=O)OCc2c1cc1n(c2=O)Cc2cc3ccccc3nc2-1 [camptothecin] |  | Cell proliferation on treatment with the stress inducer / cytotoxic compound alone [4]: almost completely inhibited
5 | COC(=O)c1ccc2c(c1)sc1nc(-c3ccccc3)cn12 [compound 2] | 100 | 
6 | Clc1ccc(-c2cn3c(n2)sc2ccccc23)cc1 [compound 3] | 101 | 
7 | CCc1ccc(-c2cn3c(n2)sc2cc(C(=O)OC)ccc23)cc1 [compound 4] | 99 | 
8 | Fc1ccccc1-c1cn2c(n1)sc1ccccc12 [compound 5] | 79 | 
9 | CCN(CC)CCCNC(=O)c1ccc2c(c1)sc1nc(-c3ccc(OC)cc3)cn12 [compound 6] | 93 | 
10 | Cc1ccc(-c2cn3c(n2)sc2cc(C(=O)NCCCN4CCCCC4C)ccc23)cc1 (centres unmarked) [compound 7] | 95 | 
11 | COc1cccc(-c2cn3c(n2)sc2cc(C(=O)NCCCN4CCOCC4)ccc23)c1 [compound 8] | 98 | 
12 | CCN(CC)CCCNC(=O)c1ccc2c(c1)sc1nc(-c3ccccc3)cn12 [compound 9] | 61 | 
13 | O=C(NCCCN1CCCCC1)c1ccc2c(c1)sc1nc(-c3ccccc3)cn12 [compound 10] | 41 | 
14 | Cc1ccc(-c2cn3c(n2)sc2cc(C(=O)NCCCN4CCOCC4)ccc23)cc1 [compound 11] | 66 | 
15 | CS(=O)(=O)c1ccc2c(c1)sc1nc(-c3ccccc3Cl)cn12 [compound 12] | 54 | 
16 | CCOC(=O)C1CCN(C(=O)c2ccc3c(c2)sc2nc(-c4ccc(OC)cc4)cn23)CC1 [compound 13] | 60 | 
17 | Tunicamycin [Tm] |  | Cell proliferation on treatment with the stress inducer / cytotoxic compound alone [4]: almost completely inhibited
